How the values were obtained:
[1] = Inhibition of gamma-secretase-mediated APP cleavage assessed as amyloid beta40 level after 2 hrs by ELISA
[2] = Inhibition of gamma-secretase-mediated notch cleavage after 2 hrs by ELISA
Gamma-secretase = experiment: Inhibition of gamma-secretase-mediated notch cleavage in human SNC cells by ELISA; format: cell-based
[3] = (§1) Oxidative metabolic stability in human liver microsomes assessed as compound remaining at 2 uM after 30 mins in presence of 1 mM UDPGA; format: ADME, Microsome; settings: liver microsomes, read-out: Stability
Liver microsomes [4] = experiment: (§2) Oxidative metabolic stability in human liver microsomes assessed as compound remaining at 1 uM after 30 mins in presence of 1 mM NADPH; format: ADME, Microsome; settings: microsomes, 0.5 h, 1 µM
[5] = target: Gamma-secretase (Homo sapiens) (UniProt Q96BI3+Q9NZ42+Q8WW43+P49768+Q92542+P49810); experiment: Inhibition of gamma-secretase-mediated APP cleavage in human SNC cells by ELISA; format: cell-based
[6] = as §2; format: ADME, Microsome; settings: liver microsomes, read-out: Stability
Mus musculus = experiment: Neuroprotective activity in wild type FVB mouse brain assessed as reduction of amyloid beta 40 level at 1 mg/kg, po after 3 hrs; format: functional; design: scale not given: the % may be the effect or the level left
Liver microsomes [7] = experiment: as §1; format: ADME, Microsome; settings: microsomes, 0.5 h, 2 µM

| SMILES | IC50 [1] | IC50 [2] | IC50 (Gamma-secretase) | remaining at 0.5 h, 2 µM [3] | Stability (Liver microsomes [4]) | ED50 [5] | remaining at 0.5 h, 1 µM [6] | Activity (Mus musculus) | Stability (Liver microsomes [7]) |
| --- | --- | --- | --- | --- | --- | --- | --- | --- | --- |
| O=S(=O)(c1ccc(C(F)(F)F)nc1)N1C(C2CC2)c2cn[nH]c2C(F)(F)C12CC2 (racemic) [4'-CYCLOPROPYL-7',7'-DIFLUORO-5'-(6-(TRIFLUOROMETHYL)PYRIDIN-3-YLSULFONYL)-1',4',5',7'-TETRAHYDRO SPIRO[CYCLOPROPANE-1,6'-PYRAZOLO[4,3-C]PYRIDINE] (ENANTIOMERIC MIX)] | 0.2 nM | 2 nM | 50 nM | 89% | 61% | – | – | – | – |
| O=C1c2[nH]ncc2[C@@H](C2CC2)N(S(=O)(=O)c2ccc(C(F)(F)F)nc2)[C@H]1C1CC1 (relative stereo) | 0.3 nM | 10 nM | 6700 nM | 75% | – | 130 nM | 77% | – | – |
| CC(C)[C@H]1C(=O)c2[nH]ncc2[C@@H](C(C)C)N1S(=O)(=O)c1ccc(C(F)(F)F)cc1 (relative stereo) | 0.5 nM | 14 nM | 2300 nM | 82% | – | 33 nM | 0% | – | – |
| C[C@H]1C(=O)c2[nH]ncc2[C@@H](C2CC2)N1S(=O)(=O)c1ccc(C(F)(F)F)nc1 (relative stereo) | 0.6 nM | 21 nM | > 40000 nM | 59% | – | > 10000 nM | 72% | – | – |
| CC[C@@H]1c2cn[nH]c2C(=O)[C@H](CC)N1S(=O)(=O)c1ccc(C(F)(F)F)nc1 (relative stereo) | 0.8 nM | 36 nM | 2360 nM | 83% | – | 21 nM | 57% | – | – |
| O=C1c2[nH]ncc2[C@@H](C2CC2)N(S(=O)(=O)c2ccc(C(F)(F)F)nc2)[C@@H]1C1CC1 (relative stereo) | 3 nM | 66 nM | 25100 nM | 87% | – | 374 nM | 21% | – | – |
| C[C@@H]1N(S(=O)(=O)c2ccc(C(F)(F)F)cc2)[C@H](C2CC2)c2cn[nH]c2C1(F)F (relative stereo) | 1 nM | 18 nM | 418 nM | 46% | – | 7 nM | 75% | – | – |
| C[C@@H]1N(S(=O)(=O)c2ccc(C(F)(F)F)nc2)[C@H](C2CC2)c2cn[nH]c2C1(F)F (relative stereo) | 1.2 nM | 20 nM | 358 nM | 59% | – | 6 nM | 79% | – | – |
| CC[C@@H]1c2cn[nH]c2C(F)(F)[C@H](CC)N1S(=O)(=O)c1ccc(C(F)(F)F)nc1 (relative stereo) | 1.8 nM | 50 nM | 304 nM | 66% | – | 6 nM | 22% | – | – |
| C[C@@H]1c2cn[nH]c2C(=O)[C@H](C)N1S(=O)(=O)c1ccc(C(F)(F)F)nc1 (stereo in doubt) | 13.2 nM | 144 nM | 18300 nM | 91% | – | 1100 nM | 67% | – | – |
| CC[C@@H]1c2cn[nH]c2C(=O)[C@H](CC)N1S(=O)(=O)c1ccc(Cl)cc1 (stereo in doubt) | 0.1 nM | 5 nM | 288 nM | 65% | – | 5 nM | 10% | – | – |
| O=S(=O)(c1ccc(C(F)(F)F)nc1)N1[C@@H](C2CC2)c2cn[nH]c2C(F)(F)[C@H]1C1CC1 (stereo in doubt) | 0.6 nM | 23 nM | 138 nM | 75% | – | 2 nM | 80% | 20% | – |
| O=S(=O)(c1ccc(C(F)(F)F)nc1)N1[C@@H](C2CC2)c2cn[nH]c2C(F)(F)[C@@H]1C1CC1 (stereo in doubt) | 0.3 nM | 3 nM | 34 nM | 61% | – | 0.5 nM | 53% | – | – |
| O=S(=O)(c1ccc(C(F)(F)F)nc1)N1[C@H](C2CC2)c2cn[nH]c2C(F)(F)[C@H]1C1CC1 (stereo in doubt) | 0.1 nM | 3 nM | 13 nM | 41% | – | 0.2 nM | 43% | – | – |
| O=S(=O)(c1ccc(C(F)(F)F)nc1)N1[C@@H](C2CC2)C(F)(F)c2[nH]ncc2[C@H]1C1CC1 (stereo in doubt) | 0.8 nM | 47 nM | 304 nM | 67% | – | 3 nM | 71% | – | – |
| CC(C)(C)C1C(=O)c2[nH]ncc2C(C2CC2)N1S(=O)(=O)c1ccc(C(F)(F)F)nc1 (stereo in doubt; 3u) [6-TERT-BUTYL-4-CYCLOPROPYL-5-(6-(TRIFLUOROMETHYL)PYRIDIN-3-YLSULFONYL)-5,6-DIHYDRO-1H-PYRAZOLO[4,3-C]PYRIDIN-7(4H)-ONE (STRUCTURAL MIX)] | 4.8 nM | 107 nM | 1640 nM | – | 12% | – | – | – | – |
| O=C1c2[nH]ncc2C(C2CC2)N(S(=O)(=O)c2ccc(C(F)(F)F)nc2)C12CC2 (stereo in doubt; 16e) [4'-CYCLO PROPYL-5'-(6-(TRIFLUORO METHYL)PYRIDIN-3-YL SULFONYL)-4',5'-DIHYDROSPIRO[CYCLOPROPANE-1,6'-PYRAZOLO[4,3-C]PYRIDIN]-7'(1'H)-ONE (ENANTIOMERIC MIX)] | 1070 nM | – | > 40000 nM | – | 83% | – | – | – | 88% |
| O=C1c2[nH]ncc2C(C2CC2)N(S(=O)(=O)c2ccc(C(F)(F)F)nc2)C12CC2 (stereo in doubt; 16f) [4'-CYCLO PROPYL-5'-(6-(TRIFLUORO METHYL)PYRIDIN-3-YL SULFONYL)-4',5'-DIHYDROSPIRO[CYCLOPROPANE-1,6'-PYRAZOLO[4,3-C]PYRIDIN]-7'(1'H)-ONE (ENANTIOMERIC MIX)] | 1.4 nM | 15 nM | 250 nM | – | – | – | – | 27% | 94% |
| O=C1c2[nH]ncc2C(C2CC2)N(S(=O)(=O)c2ccc(C(F)(F)F)cn2)C12CC2 (stereo in doubt; 16h) [4'-CYCLOPROPYL-5'-(5-(TRIFLUORO METHYL)PYRIDIN-2-YL SULFONYL)-4',5'-DIHYDROSPIRO[CYCLOPROPANE-1,6'-PYRAZOLO[4,3-C]PYRIDIN]-7'(1'H)-ONE (ENANTIOMERIC MIX)] | 897 nM | 8280 nM | > 40000 nM | – | 80% | – | – | – | – |
| O=C1c2[nH]ncc2C(C2CC2)N(S(=O)(=O)c2ccc(C(F)(F)F)cn2)C12CC2 (stereo in doubt; 16i) [4'-CYCLOPROPYL-5'-(5-(TRIFLUORO METHYL)PYRIDIN-2-YL SULFONYL)-4',5'-DIHYDROSPIRO[CYCLOPROPANE-1,6'-PYRAZOLO[4,3-C]PYRIDIN]-7'(1'H)-ONE (ENANTIOMERIC MIX)] | 9.6 nM | 223 nM | 2290 nM | – | 82% | – | – | – | 96% |
| O=S(=O)(c1ccc(C(F)(F)F)nc1)N1C(C2CC2)c2cn[nH]c2C(F)(F)C12CC2 (stereo in doubt; 17b) [4'-CYCLOPROPYL-7',7'-DIFLUORO-5'-(6-(TRIFLUOROMETHYL)PYRIDIN-3-YLSULFONYL)-1',4',5',7'-TETRAHYDRO SPIRO[CYCLOPROPANE-1,6'-PYRAZOLO[4,3-C]PYRIDINE] (ENANTIOMERIC MIX)] | – | 1 nM | 25 nM | – | 85% | – | – | – | 85% |
| O=S(=O)(c1ccc(C(F)(F)F)nc1)N1C(C2CC2)c2cn[nH]c2C(F)(F)C12CC2 (stereo in doubt; 17c) [4'-CYCLOPROPYL-7',7'-DIFLUORO-5'-(6-(TRIFLUOROMETHYL)PYRIDIN-3-YLSULFONYL)-1',4',5',7'-TETRAHYDRO SPIRO[CYCLOPROPANE-1,6'-PYRAZOLO[4,3-C]PYRIDINE] (ENANTIOMERIC MIX)] | 56 nM | 221 nM | 9280 nM | – | 72% | – | – | – | 100% |

— ChEMBL document CHEMBL1158636, “Discovery of a novel sulfonamide-pyrazolopiperidine series as potent and efficacious gamma-secretase inhibitors (Part II)” (Bioorg Med Chem Lett, 2010)
